US20230383129A1, “ANTIFOULING COMPOUNDS” (I-Tech AB, priority 2020, published 2023)

What was measured:
barnacle cyprid larva = settings: barnacles; cited from earlier work
[1] = Stability/hydrolysis of monomers in ethanol and PBS buffer followed by TLC (Setup 1); format: physicochemical; settings: after two weeks
Method: The stability of the carbamate-(M3), urea-(M4) and sulfonylderivative of medetomidine (M2 and M0) were studied in ethanol and phosphate-buffered saline (PBS) buffer. Thin-layer chromatography (TLC) was used to follow the decomposition of the derivatives to free medetomidine. It took approximately two weeks until most of the derivatives stored at room temperature to decompose. If the storage temperature was +6° C. no decomposition was observed.
Nine vials were prepared. Vial 1 contained reference compound medetomidine dissolved in ethanol (1 ml). Substance M2 (25 mg) was added to vial 2 and 3. Substance M3 (25 mg) was added to vial 4 and 5. Substance M4 (25 mg) was added to vial 6 and 7 and substance M0 was added to vial 8 and 9. The solid material in vials 2 to 9 were dissolved in ethanol (1 ml) and PBS buffer pH 7.4 (1 ml) to mimic sea water containing different salts and having a pH slightly basic. Ethanol was chosen as solvent to increase the solubility of the substances. During the study vial 1, 3, 5, 7 and 9 were stored at room temperature, whereas vial 2, 4, 6 and 8 were stored in a refrigerator at +6° C. Stability of the compounds was studied after 0, 1, 2, 5, 6, 9, 13 and 15 days using TLC and dichloromethane—methanol (95-5) as eluent.

[2] = Release of I from monomers into artificial seawater, LC-MS (Setup 2); format: physicochemical; settings: for Concentration of I released: artificial seawater 3% NaCl pH 8.0, ambient temperature; for Concentration of I (near constant over the study): artificial seawater, days 10-25
Method: The stability of M1 and M4 was evaluated via quantification of the release of I into artificial seawater (3% NaCl, pH 8.0). For the experiments, compound M1 (0.023 g) was suspended in 5 mL artificial seawater, while M4 (0.044 g) were suspended in 10 mL artificial seawater. The solutions were stirred (300 rpm) at ambient temperatures and samples were collected at 10, 15, 20 and 25 days. The samples were stored in freezer 2-2.5 months prior to LC-MS analysis.
Samples from the release studies were analyzed using LC-MS. The LC-MS system was composed of an Acquity I-class UPLC with a Waters Xevo G2-S Qtof. The chromatographic separation was obtained on a C18 column with gradient elution (Eluent A, 0.1% NH4 in MQ-water and Eluent B, 100% acetonitrile). The samples (from freezer) were extracted with hexane and the organic extracts were analyzed by LC-MS. Three external calibration curves for I, M1 and M4 were prepared the same way as the samples and used for quantification.

[3] = ethanol/PBS buffer pH 7.4, refrigerator +6° C.
[4] = ethanol/PBS buffer pH 7.4, room temperature

Cc1cccc(C(C)c2c[nH]cn2)c1C (racemic) [medetomidine, (±)-4-[1-(2,3-dimethylphenyl)ethyl)-1H-imidazole]
concentration impeding larval settlement (barnacle cyprid larva): 1 to 10 nM

Cc1cccc(C(C)c2cn(S(C)(=O)=O)cn2)c1C (stereo not drawn) [Compound M0, 4-[1-(2,3-dimethylphenyl)ethyl]-1-(methanesulfonyl)-1H-imidazole]
decomposition to free medetomidine (TLC) [1, 3]: stable | decomposition to free medetomidine (TLC) [1, 4]: stable

C=C(C)C(=O)n1cnc(C(C)c2cccc(C)c2C)c1 (stereo not drawn) [Compound M1, 1-{4-[1-(2,3-dimethylphenyl)ethyl]-1H-imidazol-1-yl}-2-methylprop-2-en-1-one]
Concentration of I released ([2]; incubation 10 days): 9330.0 ng/mL | Concentration of I released ([2]; incubation 15 days): 9905.8 ng/mL | Concentration of I released ([2]; incubation 20 days): 9748.8 ng/mL | Concentration of I released ([2]; incubation 25 days): 9820.4 ng/mL | Concentration of I (near constant over the study) [2]: ~9000 ng/mL

C=CCS(=O)(=O)n1cnc(C(C)c2cccc(C)c2C)c1 (stereo not drawn) [Compound M2, 4-[1-(2,3-dimethylphenyl)ethyl]-1-(prop-2-ene-1-sulfonyl)-1H-imidazole]
decomposition to free medetomidine (TLC) [1, 3]: mixture of medetomidine and the starting material | decomposition to free medetomidine (TLC) [1, 4]: only medetomidine

C=CCOC(=O)n1cnc(C(C)c2cccc(C)c2C)c1 (stereo not drawn) [Compound M3, prop-2-en-1-yl 4-[1-(2,3-dimethylphenyl)ethyl]-1H-imidazole-1-carboxylate]
decomposition to free medetomidine (TLC) [1, 3]: mixture of medetomidine and the starting material | decomposition to free medetomidine (TLC) [1, 4]: only medetomidine

C=CCNC(=O)n1cnc(C(C)c2cccc(C)c2C)c1 (stereo not drawn) [Compound M4, 4-[1-(2,3-dimethylphenyl)ethyl]-N-(prop-2-en-1-yl)-1H-imidazole-1-carboxamide]
decomposition to free medetomidine (TLC) [1, 3]: stable | decomposition to free medetomidine (TLC) [1, 4]: decomposition to medetomidine as well as non-hydrolyzed M4 | Concentration of I released ([2]; incubation 10 days): 5028.9 ng/mL | Concentration of I released ([2]; incubation 15 days): 5592.2 ng/mL | Concentration of I released ([2]; incubation 20 days): 5078.0 ng/mL | Concentration of I (near constant over the study) [2]: ~5000 ng/mL
